The target in this assay is Histamine H3 receptor (Rattus norvegicus) (UniProt Q9QYN8). Nature of the assay: Compound was tested for its binding affinity towards rat cortical Histamine H3L receptor.
Chain of Histamine H3 receptor (Rattus norvegicus) (Q9QYN8 whole entry, looked up): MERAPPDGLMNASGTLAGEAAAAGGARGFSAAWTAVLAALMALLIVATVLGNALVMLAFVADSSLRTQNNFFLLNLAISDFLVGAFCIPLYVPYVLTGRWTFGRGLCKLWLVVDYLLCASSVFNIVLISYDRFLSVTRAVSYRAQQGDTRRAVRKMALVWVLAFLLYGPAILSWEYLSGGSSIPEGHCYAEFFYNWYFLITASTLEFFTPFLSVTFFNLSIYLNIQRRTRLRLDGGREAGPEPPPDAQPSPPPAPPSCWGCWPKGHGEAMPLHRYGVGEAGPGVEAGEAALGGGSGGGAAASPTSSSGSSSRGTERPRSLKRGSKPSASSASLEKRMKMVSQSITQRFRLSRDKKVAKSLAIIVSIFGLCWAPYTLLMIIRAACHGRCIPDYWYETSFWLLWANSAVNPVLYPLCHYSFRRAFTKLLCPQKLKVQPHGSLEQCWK

For the compound `CN(C)CCCNc1c2c(nc3c1CCCC3)CCCCC2`, the Ki worked out at 158 nM.

The term Ki denotes the dissociation constant of the complex between target and ligand, obtained from inhibition or displacement.

For the origin of these results see BindingDB's records for doi:10.1016/s0960-894x(03)00356-1 (Abbott Laboratories, 2003).
